Measured values from patent publication US20260294922A1, “Inhibitors of JUN N-Terminal Kinases (JNK1, JNK2, and/or JNK3) and Mitogen-Activated Protein Kinases (MAPK8, MAPK9, and/or MAPK10) and Methods of Using Same” (Baylor College of Medicine, priority 2023, published 2026).
“And” between values parts separate entries of the source, which are not always exact repeats. Identical values can stand only once. “Also recorded” adds a separate entry of the source.

Assays:
endometriotic lesions [1] = test: Immunofluorescent staining of endometriotic lesions from treated mice; format: in vivo; details: 14 days, intraperitoneal
Text: FIG. 23 depicts immunofluorescent staining of sections of remaining endometriotic lesions following 14 days of treatment with CDD-2728 or with a vehicle solution (i.e., Captisol) by intraperitoneal administration.
This illustrates a common mechanism of JNK-I from the chemical series of the disclosure and their ability to target endometriotic lesions, and the innate immune cells that drive an inflammatory response within the lesions.

iHEEC = test: Beta-catenin expression in IL-1β-treated iHEEC; format: cell-based, human; design: beta-catenin expression at cell contact points: dose or concentration left out as unconfirmed
Method: FIGS. 29A-29C depict the impact of JNK inhibition on the cellular expression of beta-catenin located at the cell surface and throughout the cytoplasm of iHEEC, wherein HEEC cells were treated with vehicle (FIG. 29A), IL-1β (FIG. 29B), or IL-1β and […] CDD-2728 (FIG. 29C). The increased cytoplasmic and plasma membrane expression of β-catenin following exposure to IL-1β supports the role of β-catenin in facilitating epithelial-to-mesenchymal transdifferentiation. The cellular morphology is consistent with that of columnar epithelial cells. iHEEC were treated with JNK-I or vehicle for 30 min before addition of IL-1β, followed by incubation of cells for another 15 minutes. Addition of IL-1β over this short time course caused a dramatic change in the expression of beta-catenin in iHEEC endometriotic epithelial cells, and a noticeable change in phospho-JNK throughout the cytoplasm, induced by IL-1β. Beta catenin expression at contact points between cells is increased by IL-1β, and inhibited by CDD-2728.

endometriotic lesions [2] = test: Mouse model of induced endometriosis; details: 14 days of treatment
Method: FIG. 22A presents the design of an in vivo model in which JNK-I were evaluated for their ability to cause regression of endometriosis in mice. […] In this experimental design, endometriosis is induced by introducing isolated endometrial tissues from a donor mouse, and the prepared endometrial cells are introduced into the peritoneal cavity of recipient mice. Fourteen (14) days after induction of endometriosis, drug treatments are initiated and continued for 14 days. At the end of study (i.e., 28 days) the presence of endometriosis lesions are determined and various measurements performed.

[3] = tested on: immortalized human endometriotic epithelial cells (iHEEC); test: Phosphorylation of JNK and Jun in iHEEC; format: cell-based
Text: FIG. 26A depicts the effects of CDD-2728 and CDD-3013 on phosphorylation of the JNK enzyme itself (i.e., representing MEK4 inhibition) and phosphorylation of pSer63 and pSer73 on the transcription factor Jun in immortalized human endometriotic epithelial cells (iHEEC). The HEEC cells are a well characterized cell line that are relevant for the evaluation of inflammatory endpoints and measures of epithelial-to-mesenchymal transitions (EMT). […] This is consistent with the potency relationships of CDD-2728 relative to bentamapimod observed in cytokine gene expression described above in iHEEC cells and primary human stromal endometriotic cells. […] SP600125 has been frequently described as a poorly-selective JNK-I but in this context provides additional confirmation of inhibition of the JNK target kinase for CDD-2728. […] This adds further support to the critical role of JNK-1 to the therapeutic effect of the JNK inhibitors of the disclosure.

12Z cells = test: Phosphorylation of Jun and JNK in IL-1β-treated 12Z cells; format: cell-based, human
ERK1 = molecular target: T1, ERK1 (Homo sapiens, UniProt P27361); test: ThermoFisher SelectScreen, ERK1; format: binding
T1 construct: purchased ThermoFisher (SelectScreen, outsourced service)

[4] = Plasma ALT and AST after intraperitoneal administration; format: in vivo, mouse; details: 24 h post-dose, individual mice 1-3
HepG2 cells = test: HepG2 cell viability (ATP consumption); details: CDD-2575 25 μM; CDD-2728, CDD-2624 up to 75
Method: This assay reflects cell viability. […] To determine if the responses observed in endometriotic epithelial cells and endometriotic stromal cell cultures were cytotoxic, cell viability was performed in HepG2 cells.

T1 sequence (P27361 whole entry): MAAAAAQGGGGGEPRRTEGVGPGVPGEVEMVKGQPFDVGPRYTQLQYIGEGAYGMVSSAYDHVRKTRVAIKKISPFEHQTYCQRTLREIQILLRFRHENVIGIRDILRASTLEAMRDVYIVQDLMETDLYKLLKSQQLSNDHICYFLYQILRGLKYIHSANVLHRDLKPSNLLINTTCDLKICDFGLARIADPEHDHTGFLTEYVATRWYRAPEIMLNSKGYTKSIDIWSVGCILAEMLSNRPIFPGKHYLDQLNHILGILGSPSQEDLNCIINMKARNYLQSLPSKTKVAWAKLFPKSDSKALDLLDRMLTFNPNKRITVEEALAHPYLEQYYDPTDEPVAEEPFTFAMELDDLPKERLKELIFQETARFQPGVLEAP

CN(C)C(=O)c1cc(NC(=O)c2cc3c(-c4cnc5[nH]ccc5c4)cccc3s2)ccc1O [CDD-2728, N-(3-(dimethylcarbamoyl)-4-hydroxyphenyl)-4-(1H-pyrrolo[2,3-b]pyridin-5-yl)benzo[b]thiophene-2-carboxamide]
CD31 (endothelial cells, angiogenesis) (endometriotic lesions [1]): reduces the presence of cells corresponding to leukocytes, platelets, and endothelial cells (CD31); also recorded: angiogenesis (anti-CD31 antibody)
macrophage infiltration (F4/80) (endometriotic lesions [1]): decreases infiltration of endometriotic lesions by macrophages (F4/80)
proliferation of lesions (Ki67) (endometriotic lesions [1]): reduced rates of proliferative cell growth; also recorded: reduced cellular proliferation
cell viability or cell density (iHEEC; short time course, iHEEC): no apparent changes in cell viability or cell density
beta-catenin expression at cell contact points (iHEEC; with IL-1β): inhibited
impact on uterine, liver or kidney weight / other tissues (endometriotic lesions [2]): no impact
phosphorylation of JNK1 (P46) and JNK2 (P54) [3]: inhibits phosphorylation of JNK1 (P46) and JNK2 (P54)
phosphorylation of Jun at pSer63 and pSer73 [3]: more effectively than CDD-939
phosphorylation of JNK1 or JNK2 (12Z cells): undetectable changes
phosphorylation of Jun relative to total Jun (12Z cells; relative to bentamapimod): superior efficacy
Kd (ERK1): 909 nM
inhibition of ERK1/2 (ERK1; ERK1/2, in words): only modest inhibition of ERK1/2
ALT [4]: 87.34 IU/L and 29.17 IU/L and 23.07 IU/L
AST [4]: 78.94 IU/L and 38.37 IU/L and 35.80 IU/L
effect on HepG2 cell viability / ATP consumption (HepG2 cells): tolerated (up to 75 μM); also recorded: neither CDD-2624 or CDD-2728 had significant effects on ATP consumption
